{"source": "patent US7604671B2", "about": "“Perfumery for improved cold throw and burn in candle systems” (Givaudan Fragrances Corporation, priority 2004, dated 2009)", "origin": "cited, not measured here", "conditions": "Randebrock 1986", "data": [{"smiles": "CCCCCCCCCCC=O", "note": "[1-undecanal]", "values": [{"measurement": "experimental value for odor detection threshold in air", "result": 0.00054, "unit": "mg/m^3"}]}]}
